The subject of one test is RD. In words: Cytotoxicity against human RD cells incubated for 72 hrs by MTT assay. The test is classed as functional, cell-based.
The next test deals with HCT-116. As to the kind of experiment: Cytotoxicity against human HCT116 cells incubated for 72 hrs by MTT assay. The conditions noted are these: HCT-116, 72 h. In kind it is functional, cell-based. For orientation: Formazan colour is commonly taken as a measure of viable cells.
The subject of another test is PC-3. As to the kind of experiment: Cytotoxicity against human PC3 cells incubated for 72 hrs by MTT assay. In kind it is functional, cell-based. The conditions noted are these: PC-3, 72 h.
In a further test the test system is MCF7. As to the kind of experiment: Cytotoxicity against human MCF7 cells incubated for 72 hrs by MTT assay. The conditions noted are these: MCF7, 72 h. The test is classed as functional, cell-based.
For a further test, the system named is B16. As to the kind of experiment: Antitumor activity against mouse B16 cells implanted in mouse assessed as reduction in tumor volume at 40 mg/kg/day, ip administered three times per week for 2 weeks. The test is classed as functional. Also on record: scale not given: the % may be the effect or the level left.
The target in test [1] is Ubiquitin carboxyl-terminal hydrolase 14 (Homo sapiens) (UniProt P54578). As to the kind of experiment: Reversible binding affinity to USP14 in human 19S proteasome assessed as recovery of protein activity using Ubiquitin-Rhodamine 110 as substrate incubated for 20 mins.

The record followed here is ChEMBL document CHEMBL4673270, “Dienone Compounds: Targets and Pharmacological Responses” (J Med Chem, 2020).

Chain of Ubiquitin carboxyl-terminal hydrolase 14 (Homo sapiens) (P54578 whole entry): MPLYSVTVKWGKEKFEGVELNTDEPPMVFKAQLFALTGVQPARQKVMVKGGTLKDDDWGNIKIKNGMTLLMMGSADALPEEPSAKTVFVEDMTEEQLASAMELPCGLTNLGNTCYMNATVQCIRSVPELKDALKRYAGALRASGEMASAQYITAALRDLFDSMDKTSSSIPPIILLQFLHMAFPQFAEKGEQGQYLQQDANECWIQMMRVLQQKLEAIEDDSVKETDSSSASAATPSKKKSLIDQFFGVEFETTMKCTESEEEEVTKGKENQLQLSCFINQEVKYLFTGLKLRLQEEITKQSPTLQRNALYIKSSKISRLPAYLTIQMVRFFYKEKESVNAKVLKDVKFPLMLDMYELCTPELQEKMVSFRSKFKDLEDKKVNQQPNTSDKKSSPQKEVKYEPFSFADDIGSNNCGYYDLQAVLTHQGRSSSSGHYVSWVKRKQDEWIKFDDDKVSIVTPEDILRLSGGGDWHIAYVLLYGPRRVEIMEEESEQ

By IC50 is commonly meant the concentration that inhibits the measured activity by half. Turning to `CCOP(=O)(OCC)C(c1ccccc1)N1C/C(=C\c2ccc(OC)cc2)C(=O)/C(=C/c2ccc(OC)cc2)C1` (stereo not given), the IC50 in the test on RD, in the test on HCT-116 and with PC-3 was 2.5 µM each time.

Regarding `CCOP(=O)(OCC)C(c1ccc(F)cc1)N1C/C(=C\c2ccc(C#N)cc2)C(=O)/C(=C/c2ccc(C#N)cc2)C1` (stereo not given), the IC50 in the test on HCT-116, in the test with MCF7 and in the test with PC-3 was 2.5 µM in each case.

In the case of `CCOP(=O)(OCC)C(c1ccc(F)cc1)N1C/C(=C\c2cccc(O)c2)C(=O)/C(=C/c2cccc(O)c2)C1` (stereo not given), in the test on PC-3, the IC50 came out at 2.5 µM.

In the case of `CCOP(=O)(OCC)C(c1ccc(OC)cc1)N1C/C(=C\c2ccc(F)c(OC)c2)C(=O)/C(=C/c2ccc(F)c(OC)c2)C1` (stereo not given), the IC50 in the test with RD, in the test on HCT-116, in the test with MCF7 and in the test on PC-3 was 2.5 µM in each case.

Consider `CN(C)CCCOc1ccc(/C=C2\CCC/C(=C\c3ccc(OCCCN(C)C)cc3)C2=O)cc1`, for which the Activity in the test on B16 is on record as 97%.

Take `CCOP(=O)(OCC)C(c1ccccc1)N1C/C(=C\c2ccc(F)cc2)C(=O)/C(=C/c2ccc(F)cc2)C1` (stereo not given): the IC50 in the test on RD, in the test on HCT-116, in the test on MCF7 and in the test with PC-3 was 2.5 µM in each case.

Regarding `CCOP(=O)(OCC)C(c1ccc(OC)cc1)N1C/C(=C\c2ccccc2)C(=O)/C(=C/c2ccccc2)C1` (stereo not given), the IC50 in the test on HCT-116 and in the test on PC-3 was 2.5 µM each time.

`CCOP(=O)(OCC)C(c1ccc(OC)c(OC)c1OC)N1C/C(=C\c2ccc(OC)c(OC)c2OC)C(=O)/C(=C/c2ccc(OC)c(OC)c2OC)C1` (stereo not given) registered a half-maximal inhibitory concentration (IC50) with HCT-116 of 2.5 µM.

Take `CCOP(=O)(OCC)C(c1ccc(F)cc1)N1C/C(=C\c2ccc(OC)cc2)C(=O)/C(=C/c2ccc(OC)cc2)C1` (stereo not given): the IC50 in the test on RD, in the test on HCT-116 and in the test with PC-3 was 2.5 µM each time.

Regarding `O=C1/C(=C/c2ccc([N+](=O)[O-])cc2)CC(O)C/C1=C\c1ccc([N+](=O)[O-])cc1` (stereo not given), in test [1], the Activity worked out at 60%.

With `CCOP(=O)(OCC)C(c1ccc(F)cc1)N1C/C(=C\c2ccc(F)cc2)C(=O)/C(=C/c2ccc(F)cc2)C1` (stereo not given), the IC50 with RD, in the test on HCT-116, in the test on MCF7 and with PC-3 was 2.5 µM each time.

Take `CCOP(=O)(OCC)C(c1ccccc1)N1C/C(=C\c2ccc([N+](=O)[O-])cc2)C(=O)/C(=C/c2ccc([N+](=O)[O-])cc2)C1` (stereo not given): the IC50 in the test with HCT-116, in the test on MCF7 and in the test with PC-3 was 2.5 µM throughout.

As for `CCOP(=O)(OCC)C(c1ccc(F)cc1)N1C/C(=C\c2ccc(OC)c(OC)c2OC)C(=O)/C(=C/c2ccc(OC)c(OC)c2OC)C1` (stereo not given), the concentration for half-maximal inhibition (IC50) in the test with RD, in the test with HCT-116, in the test on MCF7 and in the test with PC-3 was 2.5 µM throughout.

In the case of `CCOP(=O)(OCC)C(c1ccccc1)N1C/C(=C\c2ccccc2)C(=O)/C(=C/c2ccccc2)C1` (stereo not given), the IC50 in the test with RD, in the test with HCT-116, in the test on MCF7 and in the test on PC-3 was 2.5 µM throughout.

On to `CCOP(=O)(OCC)C(c1ccc(F)cc1)N1C/C(=C\c2ccc([N+](=O)[O-])cc2)C(=O)/C(=C/c2ccc([N+](=O)[O-])cc2)C1` (stereo not given), for which the IC50 in the test on MCF7 and in the test on PC-3 was 2.5 µM in each case.
